Reference: ChEMBL document CHEMBL4507257, “Data for DCP probe ABT-100” (2021)

Columns and labels:
[1] = target: Aurora kinase C (Homo sapiens) (UniProt Q9UQB9); details: Compound concentration 1000.0 nM
[2] = target: Calcium/calmodulin-dependent protein kinase type II subunit delta (Homo sapiens) (UniProt Q13557); details: Compound concentration 1000.0 nM
[3] = target: Cyclin-dependent kinase 13 (Homo sapiens) (UniProt Q14004); details: Compound concentration 1000.0 nM
[4] = target: Cyclin-dependent kinase 2 (Homo sapiens) (UniProt P24941); details: Compound concentration 1000.0 nM
[5] = target: Cyclin-dependent kinase 4 (Homo sapiens) (UniProt P11802); details: Compound concentration 1000.0 nM
[6] = target: Cyclin-dependent kinase 7 (Homo sapiens, UniProt P50613); details: Compound concentration 1000.0 nM
[7] = target: Dual specificity protein kinase CLK4 (Homo sapiens) (UniProt Q9HAZ1); details: Compound concentration 1000.0 nM
[8] = target: Death-associated protein kinase 1 (Homo sapiens) (UniProt P53355); details: Compound concentration 1000.0 nM
[9] = target: Epithelial discoidin domain-containing receptor 1 (Homo sapiens) (UniProt Q08345); details: Compound concentration 1000.0 nM
[10] = system: Epidermal growth factor receptor (Homo sapiens), P00533 [G719S]; details: Compound concentration 1000.0 nM
[11] = system: Epidermal growth factor receptor (Homo sapiens), P00533 [UNDEFINED MUTATION]; details: Compound concentration 1000.0 nM
[12] = target: Ephrin type-A receptor 8 (Homo sapiens) (UniProt P29322); details: Compound concentration 1000.0 nM
[13] = target: Ephrin type-B receptor 3 (Homo sapiens) (UniProt P54753); details: Compound concentration 1000.0 nM
[14] = target: Ephrin type-B receptor 4 (Homo sapiens) (UniProt P54760); details: Compound concentration 1000.0 nM
[15] = target: Ephrin type-B receptor 6 (Homo sapiens) (UniProt O15197); details: Compound concentration 1000.0 nM
[16] = target: Tyrosine-protein kinase Fgr (Homo sapiens) (UniProt P09769); details: Compound concentration 1000.0 nM
[17] = system: Receptor-type tyrosine-protein kinase FLT3 (Homo sapiens), P36888 [UNDEFINED MUTATION]; details: Compound concentration 1000.0 nM
[18] = system: Receptor-type tyrosine-protein kinase FLT3 (Homo sapiens), P36888 [N841I]; details: Compound concentration 1000.0 nM
[19] = target: Homeodomain-interacting protein kinase 1 (Homo sapiens) (UniProt Q86Z02); details: Compound concentration 1000.0 nM
[20] = target: Homeodomain-interacting protein kinase 3 (Homo sapiens) (UniProt Q9H422); details: Compound concentration 1000.0 nM
[21] = target: Serine/threonine-protein kinase ICK (Homo sapiens) (UniProt Q9UPZ9); details: Compound concentration 1000.0 nM
[22] = target: Interleukin-1 receptor-associated kinase 4 (Homo sapiens) (UniProt Q9NWZ3); details: Compound concentration 1000.0 nM
[23] = target: Tyrosine-protein kinase JAK3 (Homo sapiens) (UniProt P52333); details: Compound concentration 1000.0 nM
[24] = target: Mitogen-activated protein kinase 8 (Homo sapiens) (UniProt P45983); details: Compound concentration 1000.0 nM
[25] = target: Mitogen-activated protein kinase 10 (Homo sapiens) (UniProt P53779); details: Compound concentration 1000.0 nM
[26] = target: MAP kinase-activated protein kinase 5 (Homo sapiens) (UniProt Q8IW41); details: Compound concentration 1000.0 nM
[27] = target: MAP/microtubule affinity-regulating kinase 3 (Homo sapiens) (UniProt P27448); details: Compound concentration 1000.0 nM
[28] = target: Maternal embryonic leucine zipper kinase (Homo sapiens) (UniProt Q14680); details: Compound concentration 1000.0 nM
[29] = target: Hepatocyte growth factor receptor (Homo sapiens) (UniProt P08581); details: Compound concentration 1000.0 nM
[30] = target: Mitogen-activated protein kinase kinase kinase 9 (Homo sapiens) (UniProt P80192); details: Compound concentration 1000.0 nM
[31] = target: Serine/threonine-protein kinase Nek2 (Homo sapiens) (UniProt P51955); details: Compound concentration 1000.0 nM
[32] = target: Mitogen-activated protein kinase 11 (Homo sapiens) (UniProt Q15759); details: Compound concentration 1000.0 nM
[33] = target: Cyclin-dependent kinase 16 (Homo sapiens) (UniProt Q00536); details: Compound concentration 1000.0 nM
[34] = target: Platelet-derived growth factor receptor alpha (Homo sapiens) (UniProt P16234); details: Compound concentration 1000.0 nM
[35] = target: Phosphatidylinositol 3-kinase C2 domain-containing subunit gamma (Homo sapiens) (UniProt O75747); details: Compound concentration 1000.0 nM
[36] = target: Phosphatidylinositol 4-phosphate 5-kinase type-1 gamma (Homo sapiens) (UniProt O60331); details: Compound concentration 1000.0 nM
[37] = target: SNF-related serine/threonine-protein kinase (Homo sapiens) (UniProt Q9NRH2); details: Compound concentration 1000.0 nM
[38] = target: Proto-oncogene tyrosine-protein kinase Src (Homo sapiens) (UniProt P12931); details: Compound concentration 1000.0 nM
[39] = target: Tyrosine-protein kinase Srms (Homo sapiens) (UniProt Q9H3Y6); details: Compound concentration 1000.0 nM
[40] = target: SRSF protein kinase 1 (Homo sapiens) (UniProt Q96SB4); details: Compound concentration 1000.0 nM
[41] = target: SRSF protein kinase 3 (Homo sapiens) (UniProt Q9UPE1); details: Compound concentration 1000.0 nM
[42] = target: Activated CDC42 kinase 1 (Homo sapiens) (UniProt Q07912); details: Compound concentration 1000.0 nM
[43] = target: Dual specificity protein kinase TTK (Homo sapiens) (UniProt P33981); details: Compound concentration 1000.0 nM
[44] = target: Phosphatidylinositol 3-kinase catalytic subunit type 3 (Homo sapiens) (UniProt Q8NEB9); details: Compound concentration 1000.0 nM
[45] = target: Sodium-dependent noradrenaline transporter (Homo sapiens) (UniProt P23975); details: Compound concentration 10.0 uM
[46] = target: Alpha-1A adrenergic receptor (Homo sapiens) (UniProt P35348); details: Compound concentration 10.0 uM
Chain of Alpha-1A adrenergic receptor (Homo sapiens) (P35348 whole entry): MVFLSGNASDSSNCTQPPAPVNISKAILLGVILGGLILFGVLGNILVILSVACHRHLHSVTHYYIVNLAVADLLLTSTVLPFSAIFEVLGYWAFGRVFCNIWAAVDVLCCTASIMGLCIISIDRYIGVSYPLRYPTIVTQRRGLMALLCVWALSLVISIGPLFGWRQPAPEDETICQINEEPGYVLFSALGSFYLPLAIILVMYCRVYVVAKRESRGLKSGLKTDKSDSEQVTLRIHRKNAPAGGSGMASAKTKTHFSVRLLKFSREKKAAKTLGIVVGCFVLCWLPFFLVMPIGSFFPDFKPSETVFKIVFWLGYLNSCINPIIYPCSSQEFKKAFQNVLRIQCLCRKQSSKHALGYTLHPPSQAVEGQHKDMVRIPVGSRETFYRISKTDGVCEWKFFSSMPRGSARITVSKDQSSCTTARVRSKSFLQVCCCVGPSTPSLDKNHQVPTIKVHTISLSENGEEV

Chain of Maternal embryonic leucine zipper kinase (Homo sapiens) (Q14680 whole entry, looked up): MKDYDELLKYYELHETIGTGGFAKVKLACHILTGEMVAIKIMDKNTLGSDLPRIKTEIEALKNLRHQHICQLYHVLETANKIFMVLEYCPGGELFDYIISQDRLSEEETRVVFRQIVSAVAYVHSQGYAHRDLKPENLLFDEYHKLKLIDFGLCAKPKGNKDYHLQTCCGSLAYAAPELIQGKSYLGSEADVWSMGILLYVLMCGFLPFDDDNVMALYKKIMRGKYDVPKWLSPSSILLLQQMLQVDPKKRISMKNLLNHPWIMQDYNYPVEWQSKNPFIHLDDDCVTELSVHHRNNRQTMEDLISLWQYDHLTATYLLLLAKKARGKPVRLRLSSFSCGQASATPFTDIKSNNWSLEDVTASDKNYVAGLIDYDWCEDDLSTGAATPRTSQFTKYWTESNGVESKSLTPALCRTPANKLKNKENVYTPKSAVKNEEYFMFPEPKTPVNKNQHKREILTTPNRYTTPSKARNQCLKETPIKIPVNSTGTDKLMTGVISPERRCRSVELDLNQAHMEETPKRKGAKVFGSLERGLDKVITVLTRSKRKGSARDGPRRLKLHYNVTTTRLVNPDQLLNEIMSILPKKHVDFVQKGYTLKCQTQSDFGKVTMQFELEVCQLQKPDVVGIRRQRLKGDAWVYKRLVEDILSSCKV
Chain of Phosphatidylinositol 4-phosphate 5-kinase type-1 gamma (Homo sapiens) (O60331 whole entry): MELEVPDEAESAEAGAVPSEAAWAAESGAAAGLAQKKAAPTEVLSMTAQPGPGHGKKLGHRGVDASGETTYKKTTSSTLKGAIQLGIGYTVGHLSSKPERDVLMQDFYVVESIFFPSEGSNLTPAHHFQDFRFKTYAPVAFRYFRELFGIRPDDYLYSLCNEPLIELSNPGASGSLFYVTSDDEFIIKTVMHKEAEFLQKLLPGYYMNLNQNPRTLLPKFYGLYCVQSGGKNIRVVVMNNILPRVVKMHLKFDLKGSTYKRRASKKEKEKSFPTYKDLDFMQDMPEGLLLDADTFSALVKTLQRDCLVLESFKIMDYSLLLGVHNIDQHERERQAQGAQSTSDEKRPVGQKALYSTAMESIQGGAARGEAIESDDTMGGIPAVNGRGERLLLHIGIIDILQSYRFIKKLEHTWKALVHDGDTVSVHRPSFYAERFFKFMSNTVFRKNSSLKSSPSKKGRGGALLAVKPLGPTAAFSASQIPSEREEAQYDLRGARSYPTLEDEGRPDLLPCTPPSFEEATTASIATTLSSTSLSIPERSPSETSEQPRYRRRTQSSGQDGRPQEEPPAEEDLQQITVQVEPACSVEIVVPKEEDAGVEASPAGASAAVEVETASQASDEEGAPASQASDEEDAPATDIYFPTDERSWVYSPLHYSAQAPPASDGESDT
Chain of Dual specificity protein kinase TTK (Homo sapiens) (P33981 whole entry): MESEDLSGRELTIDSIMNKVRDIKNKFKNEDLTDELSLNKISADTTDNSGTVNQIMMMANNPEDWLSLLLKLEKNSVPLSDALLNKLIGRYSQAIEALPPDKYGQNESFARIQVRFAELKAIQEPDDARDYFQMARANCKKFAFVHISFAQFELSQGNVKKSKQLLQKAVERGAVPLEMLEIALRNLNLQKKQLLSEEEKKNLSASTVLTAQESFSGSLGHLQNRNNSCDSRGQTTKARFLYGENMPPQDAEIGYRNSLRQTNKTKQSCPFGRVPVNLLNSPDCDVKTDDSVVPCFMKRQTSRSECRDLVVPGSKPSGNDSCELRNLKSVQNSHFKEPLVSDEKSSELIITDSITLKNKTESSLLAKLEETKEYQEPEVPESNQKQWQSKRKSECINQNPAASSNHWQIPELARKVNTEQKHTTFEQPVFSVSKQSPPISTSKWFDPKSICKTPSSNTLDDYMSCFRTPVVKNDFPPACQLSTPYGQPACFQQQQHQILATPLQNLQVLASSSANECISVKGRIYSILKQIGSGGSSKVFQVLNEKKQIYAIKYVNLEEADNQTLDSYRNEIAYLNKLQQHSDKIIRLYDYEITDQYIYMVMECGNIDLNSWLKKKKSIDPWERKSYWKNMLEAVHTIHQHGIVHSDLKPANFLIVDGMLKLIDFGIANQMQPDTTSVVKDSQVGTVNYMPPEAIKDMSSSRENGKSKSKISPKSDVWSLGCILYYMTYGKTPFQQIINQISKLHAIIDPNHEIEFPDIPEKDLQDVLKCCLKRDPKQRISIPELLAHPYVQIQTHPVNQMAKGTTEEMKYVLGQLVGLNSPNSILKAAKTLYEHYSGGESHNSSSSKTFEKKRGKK
Chain of Serine/threonine-protein kinase Nek2 (Homo sapiens) (P51955 whole entry): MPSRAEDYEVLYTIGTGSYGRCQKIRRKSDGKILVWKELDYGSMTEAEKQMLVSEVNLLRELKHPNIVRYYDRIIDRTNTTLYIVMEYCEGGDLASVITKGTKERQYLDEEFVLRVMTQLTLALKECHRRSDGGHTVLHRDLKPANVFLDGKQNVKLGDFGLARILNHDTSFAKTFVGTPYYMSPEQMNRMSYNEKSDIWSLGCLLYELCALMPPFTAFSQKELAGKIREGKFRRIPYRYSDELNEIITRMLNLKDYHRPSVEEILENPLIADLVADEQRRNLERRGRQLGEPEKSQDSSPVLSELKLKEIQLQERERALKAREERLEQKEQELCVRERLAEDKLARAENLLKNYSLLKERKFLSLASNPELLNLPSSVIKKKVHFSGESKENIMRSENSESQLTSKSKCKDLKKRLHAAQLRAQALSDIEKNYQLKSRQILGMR
Chain of MAP kinase-activated protein kinase 5 (Homo sapiens) (Q8IW41 whole entry): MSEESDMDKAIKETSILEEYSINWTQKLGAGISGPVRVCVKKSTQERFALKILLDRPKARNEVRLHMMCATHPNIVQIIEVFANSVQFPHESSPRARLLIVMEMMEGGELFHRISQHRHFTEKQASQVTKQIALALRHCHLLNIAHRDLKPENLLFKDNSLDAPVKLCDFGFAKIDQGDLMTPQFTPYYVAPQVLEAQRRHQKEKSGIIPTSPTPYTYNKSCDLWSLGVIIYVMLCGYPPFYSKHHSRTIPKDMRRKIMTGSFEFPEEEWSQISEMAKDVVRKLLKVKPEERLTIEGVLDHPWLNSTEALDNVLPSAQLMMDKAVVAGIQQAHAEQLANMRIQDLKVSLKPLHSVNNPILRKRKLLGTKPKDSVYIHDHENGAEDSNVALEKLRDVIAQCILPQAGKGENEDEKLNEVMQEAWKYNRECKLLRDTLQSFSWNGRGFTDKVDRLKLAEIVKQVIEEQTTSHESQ
Chain of Cyclin-dependent kinase 4 (Homo sapiens) (P11802 whole entry): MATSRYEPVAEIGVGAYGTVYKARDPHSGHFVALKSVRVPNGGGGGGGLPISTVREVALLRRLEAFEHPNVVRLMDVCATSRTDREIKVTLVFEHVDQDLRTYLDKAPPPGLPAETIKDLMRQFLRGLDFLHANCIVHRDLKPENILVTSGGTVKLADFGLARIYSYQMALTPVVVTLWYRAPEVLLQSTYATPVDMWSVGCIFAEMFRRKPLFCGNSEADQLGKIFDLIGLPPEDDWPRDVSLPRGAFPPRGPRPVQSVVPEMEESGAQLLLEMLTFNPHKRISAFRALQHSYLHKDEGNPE
Chain of Phosphatidylinositol 3-kinase catalytic subunit type 3 (Homo sapiens) (Q8NEB9 whole entry): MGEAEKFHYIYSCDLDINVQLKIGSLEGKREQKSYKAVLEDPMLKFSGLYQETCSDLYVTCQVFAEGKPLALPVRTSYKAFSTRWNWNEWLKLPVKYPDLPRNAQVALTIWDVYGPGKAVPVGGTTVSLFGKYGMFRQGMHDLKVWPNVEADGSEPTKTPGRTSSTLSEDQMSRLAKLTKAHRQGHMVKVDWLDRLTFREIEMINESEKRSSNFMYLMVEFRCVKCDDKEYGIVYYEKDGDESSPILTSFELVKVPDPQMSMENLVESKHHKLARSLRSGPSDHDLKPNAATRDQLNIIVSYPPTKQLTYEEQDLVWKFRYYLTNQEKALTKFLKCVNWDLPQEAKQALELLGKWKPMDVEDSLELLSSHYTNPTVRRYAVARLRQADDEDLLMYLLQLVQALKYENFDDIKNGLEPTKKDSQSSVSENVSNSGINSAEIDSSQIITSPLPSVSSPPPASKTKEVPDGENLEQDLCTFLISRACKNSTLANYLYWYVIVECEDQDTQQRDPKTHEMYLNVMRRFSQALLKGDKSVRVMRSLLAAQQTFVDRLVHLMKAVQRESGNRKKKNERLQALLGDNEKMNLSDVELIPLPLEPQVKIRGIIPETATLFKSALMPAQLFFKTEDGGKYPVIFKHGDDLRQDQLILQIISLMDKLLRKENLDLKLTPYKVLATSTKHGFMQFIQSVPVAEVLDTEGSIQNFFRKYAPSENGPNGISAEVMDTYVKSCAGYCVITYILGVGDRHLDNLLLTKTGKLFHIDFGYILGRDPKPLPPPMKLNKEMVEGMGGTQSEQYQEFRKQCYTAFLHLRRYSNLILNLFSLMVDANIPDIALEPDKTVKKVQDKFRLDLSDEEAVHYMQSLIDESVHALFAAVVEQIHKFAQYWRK

## Cn1cncc1[C@](O)(COc1ccc(C#N)cc1-c1ccc(OC(F)(F)F)cc1)c1ccc(C#N)cc1 [ABT-100]
[1]
  residual activity: 100%
[2]
  residual activity: 100%
[3]
  residual activity: 67%
[4]
  residual activity: 95%
[5]
  residual activity: 100%
[6]
  residual activity: 95%
[7]
  residual activity: 94%
[8]
  residual activity: 84%
[9]
  residual activity: 97%
[10]
  residual activity: 79%
[11]
  residual activity: 78%
[12]
  residual activity: 72%
[13]
  residual activity: 100%
[14]
  residual activity: 98%
[15]
  residual activity: 95%
[16]
  residual activity: 100%
[17]
  residual activity: 69%
[18]
  residual activity: 91%
[19]
  residual activity: 100%
[20]
  residual activity: 100%
[21]
  residual activity: 100%
[22]
  residual activity: 75%
[23]
  residual activity: 72%
[24]
  residual activity: 100%
[25]
  residual activity: 70%
[26]
  residual activity: 90%
[27]
  residual activity: 100%
[28]
  residual activity: 74%
[29]
  residual activity: 74%
[30]
  residual activity: 81%
[31]
  residual activity: 100%
[32]
  residual activity: 90%
[33]
  residual activity: 100%
[34]
  residual activity: 100%
[35]
  residual activity: 81%
[36]
  residual activity: 93%
[37]
  residual activity: 100%
[38]
  residual activity: 81%
[39]
  residual activity: 79%
[40]
  residual activity: 70%
[41]
  residual activity: 53%
[42]
  residual activity: 100%
[43]
  residual activity: 100%
[44]
  residual activity: 91%
[45]
  inhibition: 21.7%
[46]
  inhibition: -7.75%

## Cn1cncc1[C@@](O)(COc1ccc(C#N)cc1-c1ccc(OC(F)(F)F)cc1)c1ccc(C#N)cc1 [A-108]
[1]
  residual activity: 90%
[2]
  residual activity: 95%
[3]
  residual activity: 87%
[4]
  residual activity: 89%
[5]
  residual activity: 93%
[6]
  residual activity: 63%
[7]
  residual activity: 96%
[8]
  residual activity: 100%
[9]
  residual activity: 100%
[10]
  residual activity: 74%
[11]
  residual activity: 64%
[12]
  residual activity: 100%
[13]
  residual activity: 6%
[14]
  residual activity: 100%
[15]
  residual activity: 100%
[16]
  residual activity: 100%
[17]
  residual activity: 80%
[18]
  residual activity: 100%
[19]
  residual activity: 79%
[20]
  residual activity: 97%
[21]
  residual activity: 75%
[22]
  residual activity: 80%
[23]
  residual activity: 100%
[24]
  residual activity: 77%
[25]
  residual activity: 75%
[26]
  residual activity: 100%
[27]
  residual activity: 93%
[28]
  residual activity: 79%
[29]
  residual activity: 94%
[30]
  residual activity: 98%
[31]
  residual activity: 95%
[32]
  residual activity: 96%
[33]
  residual activity: 85%
[34]
  residual activity: 100%
[35]
  residual activity: 61%
[36]
  residual activity: 100%
[37]
  residual activity: 87%
[38]
  residual activity: 100%
[39]
  residual activity: 100%
[40]
  residual activity: 97%
[41]
  residual activity: 56%
[42]
  residual activity: 100%
[43]
  residual activity: 100%
[44]
  residual activity: 100%
[45]
  inhibition: 5.18%
[46]
  inhibition: 4.51%
